Data set [1] has as its system HCT-116. Nature of the data set: Antiproliferative activity against human HCT116 cells assessed as reduction in cell viability incubated for 48 hrs by MTT assay. Type of data set: functional, cell-based. Particulars: HCT-116, 48 h. (Tetrazolium assays rely on reduction of a dye to a coloured formazan, in cell work by metabolically active cells.)
For data set [2], the system named is HepG2. In words: Antiproliferative activity against human HepG2 cells assessed as reduction in cell viability incubated for 48 hrs by MTT assay. The data set is classed as functional, cell-based. Particulars: HepG2, 48 h.
For data set [3], the system named is MCF7. In words: Antiproliferative activity against human MCF7 cells assessed as reduction in cell viability incubated for 48 hrs by MTT assay. Particulars: MCF7, 48 h. Type of data set: functional, cell-based.
For data set [4], the system named is HCT-116. Nature of the data set: Induction of apoptosis in human HCT116 cells assessed as early apoptotic cells incubated for 24 hrs by annexin V FITC and propidium iodide staining based flow cytometry (reference value: 0.9 %). The data set is classed as functional.
For data set [5], the system named is HCT-116. In words: Induction of apoptosis in human HCT116 cells assessed as increase in Bax level by ELISA relative to control. Type of data set: functional. On the technique in general: ELISA stands for enzyme-linked immunosorbent assay.
The subject of data set [6] is HCT-116. In words: Induction of cell cycle arrest in human HCT116 cells assessed as accumulation in G2/M phase incubated for 24 hrs by annexin V FITC and propidium iodide staining based flow cytometry (reference value: 18.29 %). The data set is classed as functional. Background: A flow cytometer gives signals particle by particle.
Data set [7] in a line: Selectivity index, ratio of IC50 for human FHC cells to IC50 for human HCT116 cells. The data set is classed as toxicity. Particulars: FHC cells and HCT116 cells, read-out: Ratio IC50.
Data set [8] relates to HCT-116. Nature of the data set: Induction of cell cycle arrest in human HCT116 cells assessed as accumulation in S phase incubated for 24 hrs by annexin V FITC and propidium iodide staining based flow cytometry (reference value: 34.99 %). The data set is classed as functional.
In data set [9] the test system is HCT-116. In words: Induction of apoptosis in human HCT116 cells assessed as necrotic cells incubated for 24 hrs by annexin V FITC and propidium iodide staining based flow cytometry (reference value: 0.46 %). The data set is classed as functional.
In data set [10] the test system is HCT-116. In words: Induction of cell cycle arrest in human HCT116 cells assessed as accumulation in preG phase incubated for 24 hrs by annexin V FITC and propidium iodide staining based flow cytometry (reference value: 1.75 %). The data set is classed as functional.
Data set [11] deals with HCT-116. Nature of the data set: Induction of apoptosis in human HCT116 cells assessed as increase in caspase 8 level by ELISA relative to control. Type of data set: functional.
For data set [12], the system named is HCT-116. Nature of the data set: Induction of cell cycle arrest in human HCT116 cells assessed as accumulation in G0/G1 phase incubated for 24 hrs by annexin V FITC and propidium iodide staining based flow cytometry (reference value: 46.72 %). Type of data set: functional.
In data set [13] the test system is HCT-116. In words: Induction of apoptosis in human HCT116 cells assessed as increase in cytochrome C by ELISA relative to control. Type of data set: functional.
For data set [14], the system named is FHC. In words: Cytotoxicity against human FHC cells assessed as reduction in cell viability incubated for 48 hrs by MTT assay. The data set is classed as cell-based.
The test system of data set [15] is HCT-116. In words: Induction of apoptosis in human HCT116 cells assessed as increase in caspase 9 level by ELISA relative to control. Type of data set: functional.
Data set [16] deals with HCT-116. In words: Induction of apoptosis in human HCT116 cells assessed as decrease in Bcl 2 level by ELISA relative to control (reference value: 10.1 +/- 0.73 ng/ml). Type of data set: functional.
Data set [17] has as its system HCT-116. In words: Induction of apoptosis in human HCT116 cells assessed as increase in caspase 3 level by ELISA relative to control. The data set is classed as functional.
Data set [18] has as its system HCT-116. In words: Induction of apoptosis in human HCT116 cells assessed as late apoptotic cells incubated for 24 hrs by annexin V FITC and propidium iodide staining based flow cytometry (reference value: 0.39 %). Type of data set: functional.

In general, IC50 refers to the midpoint of a concentration-inhibition curve. With `CCOP(=O)(OCC)C(NNC(=O)CSc1nnc(-c2ccncc2)o1)c1ccc(O)c(O)c1` (stereo unspecified), the IC50 in data set [1] turned out to be 21.1 µM; in data set [2] it was 27.3 µM; in data set [3], 63.4 µM.
The like results for `CCOP(=O)(OCC)C(NNC(=O)CSc1nnc(-c2ccncc2)o1)c1ccc(C#N)cc1` (stereo unspecified) were, in that order, 12.7 µM, 13.6 µM and 41.7 µM.
In the case of `COc1cccc2c1C(=O)c1c(O)c3c(c(O)c1C2=O)C[C@@](O)(C(=O)CO)C[C@@H]3O[C@H]1C[C@H](N)[C@H](O)[C@H](C)O1` [DOXORUBICIN], the IC50 in [1] amounted to 9.4 µM; in data set [2], 10.4 µM.
`CCOP(=O)(OCC)C(NNC(=O)CSc1nnc(-c2ccncc2)o1)c1ccc2ccccc2c1` (stereo unspecified): the half-maximal inhibitory concentration (IC50) in [1] stood at 9.5 µM; in data set [2], 25.8 µM; in [14], 23.4 µM; in [3], 57.3 µM. Besides, the Activity is 4.59% in data set [4]; 37.97% in data set [6]; 31.47% in data set [8]; 2.14% in data set [9]; 19.24% in data set [10]; 30.56% in data set [12]. Besides, the Activity in data set [16] worked out at 5.945 ng/mL; in data set [18], 12.51%. Further, the “fold change (FC)” value was found to be 5.78 in data set [5]; 3.64 in data set [11]; 5.69 in data set [13]; 8.85 in data set [15]; 5.99 in [17]. Also, the selectivity ratio in [7] was determined as 2.46.
`CCOP(=O)(OCC)C(NNC(=O)CSc1nnc(-c2ccncc2)o1)c1ccc(O)cc1` (stereo unspecified): the results for the half-maximal inhibitory concentration (IC50) in data set [1], in [2] and in [3] were 14.6 µM, 14.8 µM and 52.9 µM, respectively.
Regarding `CCOP(=O)(OCC)C(NNC(=O)CSc1nnc(-c2ccncc2)o1)c1ccc(C)cc1` (stereo unspecified), the IC50 was found to be 17.6 µM in data set [1], 19.5 µM in [2] and 86.3 µM in data set [3].
Consider `CCOP(=O)(OCC)C(NNC(=O)CSc1nnc(-c2ccncc2)o1)c1cccs1` (stereo unspecified), for which the half-inhibitory concentration (IC50) is 17.1 µM in data set [1], 13.9 µM in data set [2] and 47.8 µM in data set [3].
On to `CCOP(=O)(OCC)C(NNC(=O)CSc1nnc(-c2ccncc2)o1)c1ccccc1Cl` (stereo unspecified), for which the IC50 was determined as 9.2 µM in data set [1], 19.2 µM in data set [2], 35.9 µM in data set [14] and 62.9 µM in [3]. Moreover, the Activity is reported as 7.26% in data set [4]; 46.33% in data set [6]; 28.76% in data set [8]; 3.28% in [9]; 26.23% in data set [10]; 24.91% in data set [12]. The Activity in data set [16] came to 5.088 ng/mL; in data set [18] it was 15.69%. In addition, the “fold change (FC)” value in [5] is recorded as 6.18; in [11] it was 6.4; in data set [13] it was 6.72; in data set [15], 11.61; in data set [17] it was 7.78. Further, the selectivity ratio in [7] was determined as 3.9.
With `CCOP(=O)(OCC)C(NNC(=O)CSc1nnc(-c2ccncc2)o1)c1ccccc1` (stereo unspecified), the half-maximal inhibitory concentration (IC50) was 22.5 µM in [1], 23.5 µM in data set [2] and 99.1 µM in data set [3].
The matching figures for `CCOP(=O)(OCC)C(NNC(=O)CSc1nnc(-c2ccncc2)o1)c1cccc(OC)c1` (stereo unspecified): 19.2 µM, 53.9 µM and 52.3 µM.
The matching figures for `CCOP(=O)(OCC)C(NNC(=O)CSc1nnc(-c2ccncc2)o1)c1ccc(F)cc1` (stereo unspecified): 31.3 µM, 21.5 µM and 70.6 µM.
The matching figures for `CCOP(=O)(OCC)C(NNC(=O)CSc1nnc(-c2ccncc2)o1)c1ccc(Br)cc1` (stereo unspecified): 17.3 µM, 31 µM and 64.4 µM.
Turning to `CCOP(=O)(OCC)C(NNC(=O)CSc1nnc(-c2ccncc2)o1)c1ccc([N+](=O)[O-])cc1` (stereo unspecified), the half-inhibitory concentration (IC50) in [1] came out at 15 µM; in data set [2], 18.1 µM; in [3], 58.8 µM.
The like results for `CCOP(=O)(OCC)C(NNC(=O)CSc1nnc(-c2ccncc2)o1)c1cc(OC)ccc1OC` (stereo unspecified) were, in that order, 24.6 µM, 20.3 µM and 61.6 µM.

Source of the values: ChEMBL document CHEMBL4364310, “Design, synthesis and biological evaluation of novel α-aminophosphonate oxadiazoles via optimized iron triflate catalyzed reaction as apoptotic inducers” (Eur J Med Chem, 2019).
